From PubChem BioAssay (NCI)
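Interpolation was linear, between the two tested concentrations surrounding the appropriate level; five concentrations were tested over 48 hours in 96-well plates. GI50 is the concentration that inhibits growth by half. TGI: total growth inhibition.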 Where a SMILES comes first, the peptide text is derived from it. [ ]: non-standard residue; d: D form. The star is where a group is joined. ξ: configuration not given here. 4Abz = Nc1ccc(C(=O)O)cc1; ξL = CC(C)CC(N)C(=O)O; NHOH = ON*

Experiments:
Assay in all cases: NCI tumour cell line growth inhibition, 48 h
MCF7 breast = system: MCF7 breast
TK-10 renal = system: TK-10 renal
CAKI-1 renal = system: CAKI-1 renal
MDA-MB-435 = system: MDA-MB-435
RPMI-8226 leukemia = system: RPMI-8226 leukemia
HOP-62 NSCLC = system: HOP-62 NSCLC

| Structure (SMILES) | GI50 (MCF7 breast) [nM] | TGI (MCF7 breast) [µM] | GI50 (TK-10 renal) [µM] | TGI (TK-10 renal) [µM] | GI50 (CAKI-1 renal) [nM] | TGI (CAKI-1 renal) [µM] | GI50 (MDA-MB-435) [nM] | TGI (MDA-MB-435) [µM] | GI50 (RPMI-8226 leukemia) [nM] | TGI (RPMI-8226 leukemia) [µM] | GI50 (HOP-62 NSCLC) [nM] | TGI (HOP-62 NSCLC) [µM] |
| --- | --- | --- | --- | --- | --- | --- | --- | --- | --- | --- | --- | --- |
| COc1ccc(OC)c(-c2cc(-c3ccc(Cl)cc3)nn2-c2ccc(S(N)(=O)=O)cc2)c1 | 3900 | 26.2 | 6.56 | 22.7 | 11200 | 29.3 | 18200 | 43.9 | 1720 | 3.72 |  |  |
| CC([C@H]1CCC2C3CCC4C(=O)C(NC=O)=CC[C@]4(C)C3CC[C@@]21C)N(C)C (stereo not given in full) | 2430 | 14.1 | 9.71 | 29.4 | 3790 | 33.5 | 2810 | > 29.9 | 2750 | 18 | 2010 | 4.56 |
| NC(=O)c1ncn(C2CCC(CP(=O)(O)O)C2)c1N (stereo not given) |  | > 100 |  | > 100 |  | > 100 |  | > 100 |  | > 100 |  | > 100 |
| COc1ccc2c(c1)Cc1cc(N=[N+]([O-])c3ccc4c(c3)Cc3cc(OC)ccc3-4)ccc1-2 |  | 64.4 |  | > 100 |  | > 100 |  | > 100 |  |  |  | > 100 |
| COc1ccc(-n2cc(-c3ccc(Cl)cc3)[nH]c2=S)cc1Cl | 34300 | > 100 | 47.3 | > 100 | 24300 | 56.7 | > 100000 | > 100 | 55300 | > 100 | 32400 | 92.2 |
| O=C1C=Cc2cc3ccccc3c3cccc1c23 | 5260 | 37.7 | 9.55 | 42.3 | 2510 | 7.1 | 16300 | 70.7 | 2620 | 8.5 | 2120 | 29.5 |
| O=C1/C(=C/c2ccc(F)cc2)CN(Cc2cn(CCNc3ccnc4cc(Cl)ccc34)nn2)C/C1=C\c1ccc(F)cc1 | 400 | 1.75 | 1.85 | 3.45 |  |  | 1410 | 2.73 | 299 | 0.896 | 2070 | 3.76 |
| Cc1c(Br)cccc1NC(=O)c1sc2nc3c(cc2c1N)CN(Cc1ccccc1)CC3 | 170 | > 50 | 1.19 | 16.1 |  |  | 36.6 | 0.141 |  |  | 204 | 4.44 |
| COc1cc(C2CC(c3ccc(C)cc3)=NN2C(C)=O)ccc1Oc1ccnc2cc(Cl)ccc12 (stereo not given) | > 100000 | > 100 |  |  |  |  | > 100000 | > 100 | > 100000 | > 100 | 4300 | > 100 |
| COC(=O)C1=C(O)C(C(=O)OC)[C@@]2(O)[C@@H](C(=O)OC)C(c3ccccc3C(F)(F)F)C[C@@H]1[C@@H]2C(=O)OC (stereo not given in full) | 2990 | 12.1 | 12.1 | 25.5 | 2710 | 6.73 | 2060 | 4.53 | 2400 | > 100 | 20400 | 36.4 |
| S=c1sc2ccccc2n1CN1CCN(Cc2ccccc2)CC1 |  | > 100 |  |  |  | > 100 |  | > 100 |  | > 100 |  | > 100 |
| CC(=O)c1c[nH]c2ccc(-c3ccnc(Nc4ccc(NC(=O)c5cccc(F)c5)c(CN5CCOCC5)c4)n3)cc12 | 149 | 1.7 | 0.268 | 1.95 | 52.6 | 5.02 | 204 | 1.47 | 325 | 1.35 | 221 | 18.7 |
| N#CC1=C(N)Oc2c(sc3c(F)cccc23)C1c1ccc(Cl)cc1 (stereo not given) | 1850 | 12 | 8.38 | 24.3 |  |  | 616 | 2.7 | 2910 | 12.8 | 2990 | 15.7 |
| COc1ccc(CNCCN2C(=O)c3ccc4c5c(ccc(c35)C2=O)C(=O)N(CCNCc2ccc(OC)cc2)C4=O)cc1 | 181 | 0.533 | 0.201 | 0.754 | 1040 | 3.38 | 189 | 0.375 | 487 | 3.14 | 579 | 1.99 |
| C=C1c2c(C)nn(-c3ccccc3)c2N(C)C23C[C@@H]1C1(C)c4c(C)nn(-c5ccccc5)c4N(C)C(C)(C[C@H]12)C3 (stereo not given in full) | 2990 | > 100 | 4.77 | 24.5 |  |  | 4120 | > 100 |  |  | 7150 | 25.9 |
| CC(C)n1c2c(c3ccccc3c1=O)C(=O)c1ccccc1-2 |  | > 100 |  | > 100 |  | > 100 |  | > 100 |  | > 100 |  | > 100 |
| COc1ccc(/C(C#N)=C/c2nc3c(N4CCOCC4)nc(Cl)nc3n2C)cc1OC | < 13.7 | 1.75 | 0.924 | 2.33 | < 10 | 1.38 | < 10 | < 0.01 | < 10 | 0.315 | < 10 | 2.53 |

| Structure (SMILES) | GI50 (MCF7 breast) [nM] | TGI (MCF7 breast) [µM] | GI50 (TK-10 renal) [µM] | TGI (TK-10 renal) [µM] | GI50 (CAKI-1 renal) [nM] | TGI (CAKI-1 renal) [µM] | GI50 (MDA-MB-435) [nM] | TGI (MDA-MB-435) [µM] | GI50 (RPMI-8226 leukemia) [nM] | TGI (RPMI-8226 leukemia) [µM] | GI50 (HOP-62 NSCLC) [nM] | TGI (HOP-62 NSCLC) [µM] |
| --- | --- | --- | --- | --- | --- | --- | --- | --- | --- | --- | --- | --- |
| CC(C)CC(NC(=O)[C@@H]1CCCN1C(=O)CNC(=O)c1ccc(N)cc1)C(=O)N[C@H](C)C(=O)NO (stereo not given in full) (H-[4Abz]GP[ξL][dA]-{NHOH}) | > 100000 | > 100 | > 100 | > 100 | > 100000 | > 100 | > 100000 | > 100 |  |  | > 100000 | > 100 |
| NC(=O)NC1=NCCC(=O)N1CCc1c[nH]c2ccccc12 |  |  |  | 48.6 |  | 6.54 |  | 41.1 |  | 50.6 |  | 37.6 |
| CC(=O)O/N=C1\C=Cc2c(no[n+]2[O-])C1=O |  | 45.4 |  | 29 |  | 35.8 |  | 36 |  | 62 |  | > 100 |
| COC(=O)C(=O)C(C(=O)C(=O)Nc1ccc(Cl)cc1Cl)c1nc2ccc(Cl)cc2[nH]c1=O (stereo not given) |  | > 100 |  | > 100 |  | > 100 |  | > 100 |  |  |  | > 100 |
| COc1ccc(-c2ccc(/C=N/n3cnn(CN4CCN(C)CC4)c3=S)o2)c([N+](=O)[O-])c1 | 28700 | 97.4 | 36.4 | > 100 |  |  | 30400 | 63.1 | 21900 | 54.2 | 34100 | > 100 |
| O=C1CCc2cc([N+](=O)[O-])ccc2O1 |  | > 100 |  | > 100 |  | > 100 |  | > 100 |  | > 100 |  | > 100 |
| CC(=O)NC1=NC(=O)/C(=C/c2ccc(Cl)cc2Cl)N1C |  | > 100 |  | > 100 |  | > 100 |  | > 100 |  |  |  | > 100 |
| c1ccc2c(c1)N=c1ccccc1=P21c2ccccc2Nc2ccccc21 |  | 5.74 |  | 8.12 |  | 8.02 |  | 2.35 |  | 0.616 |  | 8.32 |
| CN1CCN(c2nc(NCCNc3ccnc4cc(Cl)ccc34)c3ccccc3n2)CC1 | 1000 | 13.9 | 2.72 | 7.93 |  |  | 1850 | 3.61 | 1710 | 4.26 | 2730 | 14.2 |
| COc1cc2c(cc1OC)[C@@H]1[C@H](C2=O)c2ccc([N+](=O)[O-])cc2C(=O)N1CCCBr | < 10 | 0.284 | 1.28 | 41.1 | < 10 |  |  |  | 145 | 1.87 | < 27.7 | 0.709 |
| OCCOCn1nc(-c2ccccc2)nc1-c1cnccn1 |  | > 100 |  | > 100 |  |  |  |  |  | > 100 |  | > 100 |
| Cc1cc(CC(O)(C(F)(F)F)C(F)(F)F)cc(CC(O)(C(F)(F)F)C(F)(F)F)n1 |  |  |  | 13.6 |  | > 100 |  | 8.26 |  | 5.96 |  | 8.79 |
| CCCCC#Cc1c(I)n(C2OC(CO[Si](C)(C)C(C)(C)C)C3OC(C)(C)OC32)c(=O)[nH]c1=O (stereo not given) |  |  | 4.32 | 16.8 | 12500 | 25.3 | 14600 | 29.8 | 2170 | 5.28 | 20000 | 34.7 |
| C=CC[n+]1c(/C=C2\Sc3ccccc3N2C)sc(-c2ccccc2)c1-c1ccccc1 | 286 | 1.77 | 0.307 | 3.35 |  |  | 335 | 1.68 | 250 | 0.987 | 302 | 4.75 |
| Nc1nc(Cl)cc2c1ncn2C1OC(CO)C(O)C1O (stereo not given) | > 100000 | > 100 | > 100 | > 100 |  |  | > 100000 | > 100 | > 100000 | > 100 | > 100000 | > 100 |
| Cc1cc(C)c2nc(Nc3nc(C)c(C)c(=O)[nH]3)nc(C)c2c1 | 2140 | 10.7 | 3.05 | 17.9 |  |  | 3130 | 13.2 | 2130 | 6.21 | 1960 | 8.82 |
| Cc1ccc(NC(=O)C(=O)C2C(=O)C3=C(CC2(C)C)NC2C=CC=CC2S3)c(C)c1 (stereo not given) |  | > 100 |  | > 100 |  | > 100 |  | > 100 |  |  |  |  |
